Assays:
[1] = tested on: NIH 3T3 (non-malignant mouse fibroblasts); assay: SRB cytotoxicity assay, 72 h; format: cell-based; conditions: Mus musculus, NIH3T3; NIH 3T3, 72 h, cut-off 30 µM; read-out: EC50
Method in brief: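 EC50 values from SRB absorbance (570 nm) after TCA fixation, as percent surviving cells versus untreated controls. Compound exposure was 72 h at 0–30 µM, starting 24 h post-seeding, with final DMSO not above 0.5%.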

LOX IMVI (Melanoma) = assay: NCI-60 screen (SRB, 48 h); format: cell-based; conditions: Homo sapiens
Leukemia subpanel = assay: cells; conditions: Homo sapiens
Prostate cancer subpanel = assay: NCI-60 screen, subpanel; conditions: Homo sapiens
K-562 (Leukemia) = assay: NCI-60 screen (SRB, 48 h); conditions: Homo sapiens
[2] = tested on: A549/ATCC (NSC lung cancer); assay: NCI-60 screen (SRB, 48 h); conditions: Homo sapiens
HCT-116 (Colon cancer) = assay: NCI-60 screen (SRB, 48 h); conditions: Homo sapiens
HCT-15 (Colon cancer) = assay: NCI-60 screen (SRB, 48 h); conditions: Homo sapiens
KM12 (Colon cancer) = assay: NCI-60 screen (SRB, 48 h); conditions: Homo sapiens
SNB-19 (CNS cancer) = assay: NCI-60 screen (SRB, 48 h); conditions: Homo sapiens
U251 (CNS cancer) = assay: NCI-60 screen (SRB, 48 h)
MALME-3M (Melanoma) = assay: NCI-60 screen (SRB, 48 h); conditions: Homo sapiens
SK-MEL-2 (Melanoma) = assay: NCI-60 screen (SRB, 48 h); conditions: Homo sapiens
UACC-62 (Melanoma) = assay: NCI-60 screen (SRB, 48 h); conditions: Homo sapiens
IGROV1 (Ovarian cancer) = assay: NCI-60 screen (SRB, 48 h); conditions: Homo sapiens
[3] = tested on: NCI/ADR-RES (Ovarian cancer); assay: NCI-60 screen (SRB, 48 h); conditions: Homo sapiens
RXF 393 (Renal cancer) = assay: NCI-60 screen (SRB, 48 h); conditions: Homo sapiens
SN12C (Renal cancer) = assay: NCI-60 screen (SRB, 48 h); conditions: Homo sapiens
TK-10 (Renal cancer) = assay: NCI-60 screen (SRB, 48 h); conditions: Homo sapiens
PC-3 (Prostate cancer) = assay: NCI-60 screen (SRB, 48 h); conditions: Homo sapiens
MCF7 (Breast cancer) = assay: NCI-60 screen (SRB, 48 h); conditions: Homo sapiens
[4] = tested on: MDA-MB-31/ATCC (Breast cancer); assay: NCI-60 screen (SRB, 48 h); conditions: Homo sapiens
HS 578T (Breast cancer) = assay: NCI-60 screen (SRB, 48 h); conditions: Homo sapiens

For `Cc1ccc(S(=O)(=O)OC[C@@]2(C)CC[C@]3(C)CC[C@]4(C)C(=C3C2)C=C[C@@H]2[C@@]3(C)CCCNC(C)(C)[C@@H]3CC[C@]24C)cc1` [Compound 16], which EC50 [1] is on record?
The EC50 was 2.45 ± 0.1 µM.

And the IC (TGI) (LOX IMVI (Melanoma); 48 h)?
The IC (TGI) was 3.02 µM.

And the activity at 10 µM (LOX IMVI (Melanoma); 48 h, 1 dose 10 µM, read-out: Growth % of the Most Sensitive Cell Lines)?
The activity at 10 µM was -99.2%.

What about the GI50 (LOX IMVI (Melanoma); read-out: GI50) of the same compound?
Its GI50 is 1.63 µM.

What about the IC (TGI) (Leukemia subpanel; 48 h, read-out: TGI MG_MID) of the same compound?
Its IC (TGI) is 4.72 µM.

And the GI50 (Leukemia subpanel; read-out: GI50 MG_MID)?
Its GI50 is 1.61 µM.

What about the CC50 (Leukemia subpanel; read-out: LC50 MG_MID) of the same compound?
Its CC50 is > 100 µM.

And the IC (TGI) (Prostate cancer subpanel; 48 h, read-out: TGI MG_MID)?
The IC (TGI) was 3.19 µM.

And the GI50 (Prostate cancer subpanel; read-out: GI50 MG_MID)?
The GI50 was 1.67 µM.

And the CC50 (Prostate cancer subpanel; read-out: LC50 MG_MID)?
Its CC50 is 6.1 µM.

And the GI50 (K-562 (Leukemia); K562)?
The GI50 was 1.28 µM.

What about the CC50 (K-562 (Leukemia); K562, read-out: LC50) of the same compound?
The CC50 was > 100 µM.

And the GI50 ([2]; A549)?
Its GI50 is 1.86 µM.

What about the IC (TGI) ([2]; A549, 48 h, read-out: TGI) of the same compound?
Its IC (TGI) is 3.62 µM.

And the GI50 (HCT-116 (Colon cancer); HCT-116)?
The GI50 was 1.54 µM.

And the activity at 10 µM (HCT-116 (Colon cancer); HCT-116, 48 h, read-out: Growth % of the Most Sensitive Cell Lines)?
The activity at 10 µM was -91.5%.

And the GI50 (HCT-15 (Colon cancer); HCT-15)?
Its GI50 is 1.61 µM.

What about the IC (TGI) (HCT-15 (Colon cancer); HCT-15, 48 h, read-out: TGI) of the same compound?
Its IC (TGI) is 3.17 µM.

And the GI50 (KM12 (Colon cancer); KM12)?
Its GI50 is 1.86 µM.

And the IC (TGI) (KM12 (Colon cancer); KM12, 48 h, read-out: TGI)?
Its IC (TGI) is 3.57 µM.

What about the CC50 (KM12 (Colon cancer); KM12, read-out: LC50) of the same compound?
The CC50 was 6.85 µM.

And the GI50 (SNB-19 (CNS cancer); SNB-19)?
Its GI50 is 1.91 µM.

What about the IC (TGI) (SNB-19 (CNS cancer); SNB-19, 48 h, read-out: TGI) of the same compound?
The IC (TGI) was 3.62 µM.

And the GI50 (U251 (CNS cancer); Homo sapiens, U-251)?
The GI50 was 1.66 µM.

What about the IC (TGI) (U251 (CNS cancer); Homo sapiens, U-251, 48 h, read-out: TGI) of the same compound?
Its IC (TGI) is 3.17 µM.

And the CC50 (U251 (CNS cancer); Homo sapiens, U-251, read-out: LC50)?
Its CC50 is 6.07 µM.

What about the “Growth % of the Most Sensitive Cell Lines” value (U251 (CNS cancer); U251, 1 dose 10 µM) of the same compound?
The value was −95.86%.

What about the GI50 (MALME-3M (Melanoma)) of the same compound?
The GI50 was 1.68 µM.

What about the IC (TGI) (MALME-3M (Melanoma); 48 h, read-out: TGI) of the same compound?
The IC (TGI) was 3.26 µM.

What about the CC50 (MALME-3M (Melanoma); read-out: LC50) of the same compound?
Its CC50 is 6.34 µM.

What about the GI50 (SK-MEL-2 (Melanoma); SK-MEL-2) of the same compound?
The GI50 was 1.88 µM.

And the IC (TGI) (SK-MEL-2 (Melanoma); SK-MEL-2, 48 h, read-out: TGI)?
Its IC (TGI) is 3.52 µM.

And the CC50 (SK-MEL-2 (Melanoma); SK-MEL-2, read-out: LC50)?
Its CC50 is 6.58 µM.

And the GI50 (UACC-62 (Melanoma); UACC-62)?
The GI50 was 1.84 µM.

What about the IC (TGI) (UACC-62 (Melanoma); UACC-62, 48 h, read-out: TGI) of the same compound?
Its IC (TGI) is 3.39 µM.

What about the GI50 (IGROV1 (Ovarian cancer); IGROV-1) of the same compound?
The GI50 was 1.79 µM.

What about the IC (TGI) (IGROV1 (Ovarian cancer); IGROV-1, 48 h, read-out: TGI) of the same compound?
Its IC (TGI) is 3.43 µM.

What about the GI50 [3] of the same compound?
The GI50 was 2.05 µM.

What about the IC (TGI) ([3]; 48 h, read-out: TGI) of the same compound?
Its IC (TGI) is 4.59 µM.

What about the CC50 ([3]; read-out: LC50) of the same compound?
Its CC50 is > 100 µM.

What about the GI50 (RXF 393 (Renal cancer); RXF 393) of the same compound?
The GI50 was 1.35 µM.

What about the IC (TGI) (RXF 393 (Renal cancer); RXF 393, 48 h, read-out: TGI) of the same compound?
Its IC (TGI) is 2.86 µM.

What about the CC50 (RXF 393 (Renal cancer); RXF 393, read-out: LC50) of the same compound?
Its CC50 is 6.05 µM.

What about the GI50 (SN12C (Renal cancer)) of the same compound?
The GI50 was 1.79 µM.

And the IC (TGI) (SN12C (Renal cancer); 48 h, read-out: TGI)?
Its IC (TGI) is 3.41 µM.

And the GI50 (TK-10 (Renal cancer); TK-10)?
The GI50 was 1.88 µM.

And the IC (TGI) (TK-10 (Renal cancer); TK-10, 48 h, read-out: TGI)?
Its IC (TGI) is 3.59 µM.

And the CC50 (TK-10 (Renal cancer); TK-10, read-out: LC50)?
Its CC50 is 6.85 µM.

And the GI50 (PC-3 (Prostate cancer); PC-3)?
The GI50 was 1.53 µM.

And the IC (TGI) (PC-3 (Prostate cancer); PC-3, 48 h, read-out: TGI)?
Its IC (TGI) is 2.98 µM.

What about the CC50 (PC-3 (Prostate cancer); PC-3, read-out: LC50) of the same compound?
Its CC50 is 5.82 µM.

What about the GI50 (MCF7 (Breast cancer); MCF7) of the same compound?
The GI50 was 1.51 µM.

And the IC (TGI) (MCF7 (Breast cancer); MCF7, 48 h, read-out: TGI)?
Its IC (TGI) is 3.18 µM.

What about the GI50 [4] of the same compound?
The GI50 was 1.98 µM.

What about the IC (TGI) ([4]; 48 h, read-out: TGI) of the same compound?
The IC (TGI) was 3.91 µM.

And the GI50 (HS 578T (Breast cancer))?
Its GI50 is 1.94 µM.

And the IC (TGI) (HS 578T (Breast cancer); 48 h, read-out: TGI)?
Its IC (TGI) is 4.26 µM.

And the CC50 (HS 578T (Breast cancer); read-out: LC50)?
The CC50 was 9.37 µM.
